The values that follow come from US4160643A, “Water soluble cationic azo dyestuffs containing a cyclammonium group” (Imperial Chemical Industries Limited, priority 1976, dated 1979).

Series [1] can be described thus: Solubility of dyestuffs in water. The format is physicochemical.
The nature of series [2]: Behaviour in forming a liquid in a water/acetic acid/sulpholane solvent system. The format is physicochemical. The settings on record: Table 1; ambient temperature.
Setting [3] is: Table 4, dyestuff of Example 19 structure, acid sulphate, 25° C., read-out: Solubility in water at 25° C.
[4] abbreviates: Table 4, dyestuff of Example 19 structure, acid sulphate, 50° C., read-out: Solubility in water at 50° C.
Setting [5] is: Table 3, dyestuff of Example 13 structure, chloride, 25° C., read-out: Solubility in water at 25° C.
Where [6] appears, read: Table 3, dyestuff of Example 13 structure, chloride, 50° C., read-out: Solubility in water at 50° C.
The mark [7] stands for this setting: Table 1, 25° C., read-out: Solubility in water at 25° C.

Where two headings read alike, the source gives them in different places.

For the molecule `CCN(CC[n+]1ccccc1)c1ccc(N=Nc2c(Cl)cc([N+](=O)[O-])cc2Cl)cc1` [Pyridine (Table 4)], the results for the solubility in series [1] (setting [3]) and in series [1] (setting [4]) were 10000 µg/mL and 20000 µg/mL, respectively.
With `CCN(CC[n+]1ccc(C)cc1)c1ccc(N=Nc2ccc([N+](=O)[O-])cc2Cl)cc1` [γ-picoline (Table 3)], the results for the solubility in series [1] (setting [5]) and in series [1] (setting [6]) were 10000 µg/mL and 240000 µg/mL, respectively.
Regarding `O=[N+]([O-])c1ccc(N=Nc2ccc(NCC[n+]3ccccc3)c(Cl)c2)cc1` [Pyridine (Table 1)], the solubility in series [1] (setting [7]) was less than 2500 µg/mL. Besides, the “Solubility of 1 part of dye in 1 part water 1.5 part acetic acid 1 part sulpholane” value in series [2] is on record as “Not a solution at ambient”.
Regarding `CCN(CC[n+]1ccc(C)cc1)c1ccc(N=Nc2c(Cl)cc([N+](=O)[O-])cc2Cl)cc1` [γ-picoline (Table 4)], the solubility in series [1] (setting [3]) came to 1000 µg/mL; in series [1] (setting [4]), 5000 µg/mL.
Take `Cc1cc[n+](CCNc2ccc(N=Nc3ccc([N+](=O)[O-])cc3)cc2Cl)cc1` [γ-picoline (Table 1)]: the solubility in series [1] (setting [7]) was 75000 to 100000 µg/mL. The “Solubility of 1 part of dye in 1 part water 1.5 part acetic acid 1 part sulpholane” value in series [2] is listed as “Not a solution at ambient”.
Take `CCN(CC[n+]1ccccc1)c1ccc(N=Nc2ccc([N+](=O)[O-])cc2Cl)cc1` [Pyridine (Table 3)]: the solubility in series [1] (setting [5]) is 10000 µg/mL; in series [1] (setting [6]), 300000 µg/mL.
`Cc1cccc[n+]1CCNc1ccc(N=Nc2ccc([N+](=O)[O-])cc2)cc1Cl` [α-picoline]: the solubility in series [1] (setting [7]) is less than 2500 µg/mL.

In general, solubility refers to the dissolved amount per volume that the medium holds.
